Patent US20120079993A1, “B[…]” (UNIVERSITY OF DURHAM, priority 2010, published 2012)

Legend:
Balb/c mice = experiment: Open space anxiety test: elevated platform with steep slopes; conditions: amphetamine 5 and 10 mg/kg vs diazepam 0.5, 1 and 3 mg/kg
mouse or rat = experiment: Elevated platform at 75 cm height: falling from the platform and locomotion; assay type: in vivo; conditions: 0.2 mg/kg i.p.; platform at 75 cm height
From the text: Most mice and rats do jump onto the ground when the platform is raised by 50 cm but not when it is raised by about 75 cm. […] If a manipulation does induce jumping onto or falling on the ground, the experiment cannot be continued with the group of animals displaying this behaviour. Lower the doses if using drugs. One can prevent animals from sliding from the platform by using a ledge (not higher than 0.5 cm height) on each side adjacent to the void space. […] At 100 cm height, the test is more anxiogenic (3) and it is likely to cancel its sensitivity to experimental manipulations. Because of animal welfare regulations, it is advised that a soft carpet (polyethylene foam map about 3-5 cm thick) is laid on the ground beneath the slopes. It is preferable that it is grey or dark unicolor and covers all the visible areas of the floor within the curtain perimeter that surrounds the test apparatus.

SMILES: CC(N)Cc1ccccc1 (stereo not shown) [amphetamine]
- number of crossings on the platform (motor activity) in amphetamine treated mice compared to diazepam treated mice (Balb/c mice): double
- number of crossings on the platform (motor activity) in amphetamine treated mice compared to diazepam treated mice (Balb/c mice; listed as Amphetamine): at least two-fold

SMILES: C[C@]12N[C@H](Cc3ccccc31)c1ccccc12 [MK-801]
- effect on locomotion (mouse or rat): induced uncoordinated, unsteady locomotion
- falling from the platform (mouse or rat): falling from the platform
